Experimental data reported in US20230357179A1, “RAF KINASE INHIBITORS AND METHODS OF USE THEREOF” (Deciphera Pharmaceuticals, LLC, priority 2021, published 2023).

Assays:
B-Raf (V600E) kinase = target: T1, B-Raf (V600E) kinase (Homo sapiens, UniProt P15056, V600E); test: Biochemical assay for B-Raf (V600E).2 (coupled pyruvate kinase/lactate dehydrogenase); details: read-out: BRAF V600E.2 IC50
T1 construct: B-Raf (V600E) residues 416-766 with a; GST (N); purchased SignalChem
Description: Biochemical Assay for B-Raf (V600E).2
Activity of B-Raf (V600E) (SEQ. ID NO: 4) kinase was determined spectroscopically using a coupled pyruvate kinase/lactate dehydrogenase assay that continuously monitors the ATP hydrolysis-dependent oxidation of NADH (e.g., Schindler et al., Science, 2000, 289, 1938-1942). Assays were conducted in 384-well plates (25 μL final volume) using 0.5 nM B-Raf (deCode), 1.5 units pyruvate kinase, 2.1 units lactate dehydrogenase, 1 mM phosphoenol pyruvate, 0.7 mM NADH, 100 nM MEK (SignalChem), and 1 mM ATP in assay buffer (100 mM Tris, pH 7.5, 15 mM MgCl2, 0.5 mM DTT, 0.1% octyl-glucoside, 0.002% (w/v) BSA, and 0.002% Triton X-100). Inhibition of B-Raf (V600E) was measured by adding serial diluted test compound (final assay concentration of 1% DMSO). A decrease in absorption at 340 nm was monitored hourly for 4 h at 30° C. on a multi-mode microplate reader (BioTek). The reaction rate was calculated using the 3 to 4 h time frame. The reaction rate at each concentration of compound was converted to percent inhibition using controls (i.e., reaction with no test compound and reaction with a known inhibitor) and IC50 values were calculated by fitting a four-parameter sigmoidal curve to the data using Prism (GraphPad software).

H2405 cells = test: H2405 cell proliferation assay (2), resazurin, 384-well; assay type: cell-based; details: Homo sapiens, NCI-H2405, inhibition of cell proliferation, 67-72 h
Description: H2405 Cell Proliferation Assay (2)
H2405 cells (catalog #CRL-5994) are obtained from the American Type Culture Collect (ATTC, Manassas, VA). Briefly, cells were grown in RPMI 1640 supplemented with 5% characterized fetal bovine serum (Invitrogen, Carlsbad, CA) and 1% Penicillin/Streptomycin/L-Glutamine at 37° C., 5% CO2, and 95% humidity. Cells are expanded until reaching 70-95% confluency at which point they are sub-cultured or harvested for assay use. A serial dilution of test compound is dispensed into a 384-well black clear bottom plate in triplicate. Seven hundred fifty cells are added per well in 50 μL complete growth medium in the 384-well plate. Plates are incubated for 67-72 h at 37° C., 5% CO2, and 95% humidity. At the end of the incubation, 10 μL of a 440 μM solution of resazurin (Sigma, St. Louis, MO) in PBS is added to each well of the plate and plates are incubated for an additional 5-6 h at 37° C., 5% CO2, and 95% humidity. Plates are read on a Synergy2 or equivalent reader (Biotek, Winooski VT) using an excitation of 540 nm and an emission of 600 nm. Data is analyzed using Prism software (GraphPad, San Diego, CA) to calculate IC50 values

WM3629 cells = test: WM3629 cell proliferation assay (1), resazurin, 96-well; assay type: cell-based; details: inhibition of cell proliferation
Description: WM3629 Cell Proliferation Assay (1)
WM3629 cells (#WM3629-01-0001) are obtained from Rockland Immunochemicals Inc (Gilbertsville, PA). Briefly, cells were grown in MCDB 153 medium (Sigma, #M7403, St. Louis, MO) supplemented with 20% Leibovitz's L-15 (ThermoFisher #11415-064, Waltham, MA), 2% heat inactivated fetal bovine serum (ThermoFisher, #A3840001, Waltham, MA), 5 μg/mL Insulin (Bovine Pancreas) (Sigma, #I0516, St. Louis, MO), 1.68 mM Calcium Chloride (Sigma, #C-34006, St. Louis, MO) and 1% Penicillin/Streptomycin/L-Glutamine (ThermoFisher #10378016, Waltham, MA) at 37° C., 5% CO2, and 95% humidity. Cells are expanded until reaching 70-95% confluency at which point they are subcultured or harvested for assay use. A serial dilution of test compound is dispensed into a 96-well black clear bottom plate in triplicate. Four thousand five hundred cells are added per well in 200 μL complete growth medium in the 96-well plate. Plates are incubated for 67-72 hours at 37° C., 5% CO2, and 95% humidity. At the end of the incubation, 40 μL of a 440 μM solution of resazurin (Sigma, #199303, St. Louis, MO) in PBS is added to each well of the plate and plates are incubated for an additional 6-7 hours at 37° C., 5% CO2, and 95% humidity. Plates are read on a Synergy2 or equivalent reader (Biotek, Winooski VT) using an excitation of 540 nm and an emission of 600 nm. Data is analyzed using Prism software (GraphPad, San Diego, CA) to calculate IC50 values.

A375 cells = test: A375 cell proliferation assay (2), resazurin, 384-well; assay type: cell-based; details: Homo sapiens, A-375, inhibition of cell proliferation, 67-72 h
Description: A375 Cell Proliferation Assay (2)
A375 cells (catalog (#CRL-1619) are obtained from the American Type Culture Collect (ATTC, Manassas, VA). Briefly, cells were grown in DMEM High Glucose supplemented with 10% characterized fetal bovine serum (Invitrogen, Carlsbad, CA) and 1% Penicillin/Streptomycin/L-Glutamine at 37° C., 5% CO2, and 95% humidity. Cells are expanded until reaching 70-95% confluency at which point they are sub-cultured or harvested for assay use. Using the Beckman Coulter Echo 650, a serial dilution of test compound is dispensed into a 384-well black clear bottom plate in triplicate. Six hundred twenty-five cells are added per well in 50 μL complete growth medium in the 384-well plate. Plates are incubated for 67-72 h at 37° C., 5% CO2, and 95% humidity. At the end of the incubation, 10 μL of a 440 μM solution of resazurin (Sigma, St. Louis, MO) in PBS is added to each well of the plate and plates are incubated for an additional 3-6 h at 37° C., 5% CO2, and 95% humidity. Plates are read on a Synergy2 or equivalent reader (Biotek, Winooski VT) using an excitation of 540 nm and an emission of 600 nm. Data is analyzed using Prism software (GraphPad, San Diego, CA) to calculate IC50 values.

T1 sequence (P15056 416-766 V600E): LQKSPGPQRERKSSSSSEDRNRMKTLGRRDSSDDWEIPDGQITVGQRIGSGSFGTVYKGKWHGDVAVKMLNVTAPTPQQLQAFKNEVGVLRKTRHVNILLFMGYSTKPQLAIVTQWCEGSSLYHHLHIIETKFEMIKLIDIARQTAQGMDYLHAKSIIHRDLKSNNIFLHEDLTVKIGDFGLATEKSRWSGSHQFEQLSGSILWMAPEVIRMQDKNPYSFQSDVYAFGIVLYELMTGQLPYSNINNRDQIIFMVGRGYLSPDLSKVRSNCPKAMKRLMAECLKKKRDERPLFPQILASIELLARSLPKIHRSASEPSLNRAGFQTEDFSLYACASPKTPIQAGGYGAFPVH

COC(=O)Nc1cc(-c2cncc(-c3cc(NC(=O)N4CC[C@H](C(F)(F)F)C4)ccc3C)c2)ncn1 [Example 224]
IC50 (B-Raf (V600E) kinase): ≤ 100 nM | IC50 (H2405 cells): ≤ 100 nM | IC50 (WM3629 cells): ≤ 100 nM

CNC(=O)c1cc(-c2cncc(-c3cc(NC(=O)N4CC[C@H](C(F)(F)F)C4)ccc3C)c2)ccn1 [Example 228]
IC50 (B-Raf (V600E) kinase): ≤ 100 nM | IC50 (A375 cells): 1000 to 10000 nM | IC50 (H2405 cells): 100 to 500 nM

CNC(=O)c1cc(-c2cc(-c3cc(NC(=O)N4CC[C@H](C(F)(F)F)C4)ccc3C)ccn2)ccn1 [Example 215]
IC50 (B-Raf (V600E) kinase): 100 to 500 nM | IC50 (H2405 cells): 100 to 500 nM | IC50 (WM3629 cells): ≤ 100 nM

CNC(=O)c1cc(-c2cncc(-c3cc(NC(=O)N4CC[C@H](C(F)(F)F)C4)ccc3C)c2)ncn1 [Example 220]
IC50 (B-Raf (V600E) kinase): 100 to 500 nM | IC50 (A375 cells): 1000 to 10000 nM

CNC(=O)c1cc(-c2cncc(-c3cc(NC(=O)N4CC[C@H](C(C)C)C4)ccc3C)c2)ncn1 [Example 226]
IC50 (B-Raf (V600E) kinase): ≤ 100 nM | IC50 (A375 cells): 500 to 1000 nM

CNC(=O)c1cc(-c2cc(-c3cc(NC(=O)N4CC[C@H](C(C)C)C4)ccc3C)ccn2)ccn1 [Example 225]
IC50 (B-Raf (V600E) kinase): ≤ 100 nM | IC50 (A375 cells): 100 to 500 nM | IC50 (WM3629 cells): ≤ 100 nM

Cc1ccc(NC(=O)N2CC[C@H](C)C2)cc1-c1cncc(-c2cc(NC(=O)C3CC3)ncn2)c1 [Example 227]
IC50 (B-Raf (V600E) kinase): ≤ 100 nM | IC50 (A375 cells): 1000 to 10000 nM | IC50 (H2405 cells): 1000 to 10000 nM

CNC(=O)c1cc(-c2cncc(-c3cc(NC(=O)N4CC[C@H](C(C)C)C4)ccc3C)c2)ccn1 [Example 229]
IC50 (B-Raf (V600E) kinase): ≤ 100 nM | IC50 (A375 cells): 100 to 500 nM | IC50 (H2405 cells): 500 to 1000 nM
